For this experiment, the target named is T1, PE-labeled human PD-L1-Ig binding to Jurkat cell line over-expressing human PD-1 (Jurkat-PD-1) (Homo sapiens, UniProt Q15116).
T1 construct: expressed in transfected cells; host or cells: Jurkat
Description: Jurkat-PD-1 Cell Binding High-Content Screening Assay (CBA): Method 1. Conditions: Jurkat-hPD-1 cells, PE-labeled PD-L1-Ig 20 nM final; read-out: Jurkat HPDL1 PD1 IC50 (uM) (Method 1).

Bridge positions count the residues as written; N and C are the ends. Square brackets hold non-standard residues; d marks the D form. Peptide text beside a SMILES is read from it. * marks the point of attachment. Trp(1-CH2COOH) = N[C@@H](Cc1cn(CC(=O)O)c2ccccc12)C(=O)O; Tyr(3-NO2) = N[C@@H](Cc1ccc(O)c([N+](=O)[O-])c1)C(=O)O; Ala(morpholin-4-yl) = N[C@@H](CN1CCOCC1)C(=O)O; Phe(4-COOH) = N[C@@H](Cc1ccc(C(=O)O)cc1)C(=O)O; Phe(3,4-F2) = N[C@@H](Cc1ccc(F)c(F)c1)C(=O)O; Bip = N[C@@H](Cc1ccc(-c2ccccc2)cc1)C(=O)O; Phe(3-Me) = Cc1cccc(C[C@H](N)C(=O)O)c1; Phe(2-F) = N[C@@H](Cc1ccccc1F)C(=O)O; Val(3-OH) = CC(C)(O)[C@H](N)C(=O)O; 3Pal = N[C@@H](Cc1cccnc1)C(=O)O; Cha = N[C@@H](CC1CCCCC1)C(=O)O; Cit = NC(=O)NCCC[C@H](N)C(=O)O; Carboxymethyl = O=C(O)C*; NMeA = CN[C@@H](C)C(=O)O; Orn = NCCC[C@H](N)C(=O)O; Dab = NCC[C@H](N)C(=O)O; Dap = NC[C@H](N)C(=O)O

A word on the IC50: it is the concentration at which inhibition is half-maximal.

T1 sequence (Q15116 25-288): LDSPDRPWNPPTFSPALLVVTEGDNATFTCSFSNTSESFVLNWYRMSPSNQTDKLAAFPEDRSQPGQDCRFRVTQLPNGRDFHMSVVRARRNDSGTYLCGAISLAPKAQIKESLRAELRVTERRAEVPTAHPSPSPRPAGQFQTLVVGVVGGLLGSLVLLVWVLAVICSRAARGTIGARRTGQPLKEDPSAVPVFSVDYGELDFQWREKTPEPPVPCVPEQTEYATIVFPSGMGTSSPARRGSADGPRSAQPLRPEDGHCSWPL

For the compound `CCNC(=O)[C@H](CCN)NC(=O)[C@@H]1CSCC(=O)N[C@@H](CCN)C(=O)N[C@@H](Cc2ccc(C(=O)O)cc2)C(=O)N[C@@H](CC(=O)O)C(=O)N[C@@H](Cc2c[nH]c3ccccc23)C(=O)N[C@@H](CC(C)C)C(=O)N[C@@H](Cc2ccc(-c3ccccc3)cc2)C(=O)N[C@@H]([C@@H](C)CC)C(=O)N(C)[C@@H](C)C(=O)N[C@H](CC(C)C)C(=O)N[C@@H](CCN)C(=O)N[C@@H](CC2CCCCC2)C(=O)N[C@@H](C(C)(C)O)C(=O)N[C@@H](CO)C(=O)N1` [Compound 1850] ({CH2CO}-[Dab][Phe(4-COOH)]DWL[Bip]I[NMeA][dL][Dab][Cha][Val(3-OH)]SC[Dab]-NHEt; thioether N-14), the IC50 turned out to be 0.01 µM.
Then `CC(C)C[C@@H]1NC(=O)[C@H](CCN)NC(=O)[C@@H](CC(C)C)NC(=O)[C@H](C)N(C)C(=O)[C@H](CCCNC(=N)N)NC(=O)[C@H](Cc2ccc(-c3ccccc3)cc2)NC(=O)[C@H](C(C)C)NC(=O)[C@H](Cc2c[nH]c3ccccc23)NC(=O)[C@H](CC(=O)O)NC(=O)[C@H](Cc2ccc(O)cc2)NC(=O)[C@H](CCCNC(=N)N)NC(=O)CSC[C@@H](C(=O)N[C@@H](C)C(N)=O)NC(=O)[C@H]([C@@H](C)O)NC(=O)[C@H](C(C)C)NC1=O` [Compound 1343] ({CH2CO}-RYDWV[Bip]R[NMeA][dL][Dab]LVTCA-NH2; thioether N-14), with 0.04 µM; and `Cc1cccc(C[C@@H]2NC(=O)[C@H](CC(=O)O)NC(=O)[C@H](Cc3ccc(OCC(=O)O)cc3)NC(=O)[C@H](CN)NC(=O)CSC[C@@H](C(=O)N[C@@H](C)C(N)=O)NC(=O)[C@H]([C@@H](C)O)NC(=O)[C@H](C(C)C)NC(=O)[C@H](CC(C)C)NC(=O)[C@H](CCN)NC(=O)[C@@H](CC(C)C)NC(=O)[C@H](C)N(C)C(=O)[C@H](CCCNC(=N)N)NC(=O)[C@H](Cc3ccc(-c4ccccc4)cc3)NC(=O)[C@H](C(C)C)NC2=O)c1` [Compound 1456] ({CH2CO}-[Dap]Y(Carboxymethyl)D[Phe(3-Me)]V[Bip]R[NMeA][dL][Dab]LVTCA-NH2; thioether N-14), with 0.04 µM; and `CC(C)C[C@@H]1NC(=O)[C@H](CCN)NC(=O)[C@@H](CC(C)C)NC(=O)[C@H](C)N(C)C(=O)[C@H](C(C)C)NC(=O)[C@H](Cc2ccc(-c3ccccc3)cc2)NC(=O)[C@H](C(C)C)NC(=O)[C@H](Cc2c[nH]c3ccccc23)NC(=O)[C@H](CC(=O)O)NC(=O)[C@H](Cc2ccc(OCC(=O)O)cc2)NC(=O)[C@H](CN)NC(=O)CSC[C@@H](C(=O)N[C@@H](C)C(N)=O)NC(=O)[C@H]([C@@H](C)O)NC(=O)[C@H](C(C)C)NC1=O` [Compound 1447] ({CH2CO}-[Dap]Y(Carboxymethyl)DWV[Bip]V[NMeA][dL][Dab]LVTCA-NH2; thioether N-14), with 0.03 µM.
The figure for `CC(C)C[C@@H]1NC(=O)[C@H](CCCNC(=N)N)NC(=O)[C@H](Cc2cn(CC(=O)O)c3ccccc23)NC(=O)[C@H](C)N(C)C(=O)[C@H](CCCNC(=N)N)NC(=O)[C@H](Cc2ccc(-c3ccccc3)cc2)NC(=O)[C@H](C(C)C)NC(=O)[C@H](Cc2c[nH]c3ccccc23)NC(=O)[C@H](CC(=O)O)NC(=O)[C@H](Cc2ccc(O)cc2)NC(=O)[C@H](Cc2ccccc2)NC(=O)CSC[C@@H](C(=O)NCC(N)=O)NC(=O)[C@H](CO)NC(=O)[C@H](C(C)C)NC1=O` [Compound 1011] ({CH2CO}-FYDWV[Bip]R[NMeA][Trp(1-CH2COOH)]RLVSCG-NH2; thioether N-14) is 0.1 µM.
The figure for `CC(C)C[C@@H]1NC(=O)[C@H](CCN)NC(=O)[C@@H](CC(C)C)NC(=O)[C@H](C)N(C)C(=O)[C@H](CCCNC(=N)N)NC(=O)[C@H](Cc2ccc(-c3ccccc3)cc2)NC(=O)[C@H](C(C)C)NC(=O)[C@H](Cc2c[nH]c3ccccc23)NC(=O)[C@H](CC(=O)O)NC(=O)[C@H](Cc2ccc(O)c([N+](=O)[O-])c2)NC(=O)[C@H](Cc2ccccc2)NC(=O)CSC[C@@H](C(=O)N[C@@H](C)C(N)=O)NC(=O)[C@H]([C@@H](C)O)NC(=O)[C@H](C(C)C)NC1=O` [Compound 1145] ({CH2CO}-F[Tyr(3-NO2)]DWV[Bip]R[NMeA][dL][Dab]LVTCA-NH2; thioether N-14) is 0.02 µM; for `CC(C)C[C@@H]1NC(=O)[C@H](CCCNC(=N)N)NC(=O)[C@@H](Cc2ccccc2)NC(=O)[C@H](C)N(C)C(=O)[C@H](CCCNC(=N)N)NC(=O)[C@H](Cc2ccc(-c3ccccc3)cc2)NC(=O)[C@H](C(C)C)NC(=O)[C@H](Cc2c[nH]c3ccccc23)NC(=O)[C@H](CC(=O)O)NC(=O)[C@H](Cc2ccc(O)cc2)NC(=O)[C@H](Cc2cccnc2)NC(=O)CSC[C@@H](C(=O)N[C@@H](C)C(N)=O)NC(=O)[C@H]([C@@H](C)O)NC(=O)[C@H](C(C)C)NC1=O` [Compound 1161] ({CH2CO}-[3Pal]YDWV[Bip]R[NMeA][dF]RLVTCA-NH2; thioether N-14) it is 0.11 µM.
As to `Cc1cccc(C[C@@H]2NC(=O)[C@H](CC(=O)O)NC(=O)[C@H](Cc3ccc(C(=O)O)cc3)NC(=O)[C@H](Cc3ccc(OCC(=O)O)cc3)NC(=O)CSC[C@@H](C(N)=O)NC(=O)[C@H](CO)NC(=O)[C@H](C(C)C)NC(=O)[C@H](CC(C)C)NC(=O)[C@H](CC(N)=O)NC(=O)[C@@H](CC(C)C)NC(=O)[C@H](C)N(C)C(=O)[C@H](CCCNC(N)=O)NC(=O)[C@H](Cc3ccc(-c4ccccc4)cc3)NC(=O)[C@H](CC(C)C)NC2=O)c1` [Compound 1643] ({CH2CO}-Y(Carboxymethyl)[Phe(4-COOH)]D[Phe(3-Me)]L[Bip][Cit][NMeA][dL]NLVSC-NH2; thioether N-14), the IC50 stood at 0.08 µM.
Turning to `CC(C)C[C@@H]1NC(=O)[C@H](CCCNC(=N)N)NC(=O)[C@@H](CC(C)C)NC(=O)[C@H](C)N(C)C(=O)[C@H](CCCNC(=N)N)NC(=O)[C@H](Cc2ccc(-c3ccccc3)cc2)NC(=O)[C@H](C(C)C)NC(=O)[C@H](Cc2ccc(F)c(F)c2)NC(=O)[C@H](CC(=O)O)NC(=O)[C@H](Cc2ccc(O)cc2)NC(=O)[C@H](CC(N)=O)NC(=O)CSC[C@@H](C(=O)N[C@@H](C)C(N)=O)NC(=O)[C@H]([C@@H](C)O)NC(=O)[C@H](C(C)C)NC1=O` [Compound 1194] ({CH2CO}-NYD[Phe(3,4-F2)]V[Bip]R[NMeA][dL]RLVTCA-NH2; thioether N-14), the IC50 worked out at 0.69 µM.
Then `Cc1cccc(C[C@@H]2NC(=O)[C@H](CC(=O)O)NC(=O)[C@H](Cc3ccc(OCC(=O)O)cc3)NC(=O)[C@H](CN3CCOCC3)NC(=O)CSC[C@@H](C(=O)N[C@@H](CCN)C(N)=O)NC(=O)[C@H](CCCN)NC(=O)[C@H](C(C)C)NC(=O)[C@H](Cc3ccccc3F)NC(=O)[C@H](CCN)NC(=O)[C@@H](CC(C)C)NC(=O)[C@H](C)N(C)C(=O)[C@H](CCC(N)=O)NC(=O)[C@H](Cc3ccc(-c4ccccc4)cc3)NC(=O)[C@H](Cc3ccc(C(=O)O)cc3)NC2=O)c1` [Example 2296] ({CH2CO}-[Ala(morpholin-4-yl)]Y(Carboxymethyl)D[Phe(3-Me)][Phe(4-COOH)][Bip]Q[NMeA][dL][Dab][Phe(2-F)]V[Orn]C[Dab]-NH2; thioether N-14), with 0.44 µM.

The values above are taken from patent US20240409585A1, “MACROCYCLIC IMMUNOMODULATORS” (priority 2021, published 2024).
